The values below are quoted from earlier work in patent US20120021064A1, “COMPOSITIONS FOR BOWEL PREPARATION AND METHODS OF USE THEREOF” (Salix Pharmaceuticals, Ltd., priority 2009, published 2012).

Read-outs that look alike come from different tables or passages of the source.

As for `CC(=O)Oc1ccc(C(c2ccc(OC(C)=O)cc2)c2ccccn2)cc1` [Bisacodyl], the “time to produce a bowel movement” value is listed as “about 20 minutes” (enemas) and “about an hour” (suppositories).
